Test [1] deals with H929 human cancer cell lines. The experiment in a line: Cellular viability / proliferation (Cell TiterGlo, 72 h). The class given is cell-based. An outline of the steps: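 Plating is at 1,000 cells/well in 10% FBS medium; after 24 h, compound is added as a 2-fold series starting at 50 μM with under 1% DMSO.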
(In general: Cellular ATP, detected with luciferase, serves as a proxy for viable cell number.)

In test [2] the target is Mcl-1 (Homo sapiens (Human), UniProt Q07820). The experiment in a line: Fluorescence polarization anisotropy (FPA) competition assay, FITC-Bak or FITC-Bim BH3 peptide. The following applies: read-out: Ki for Inhibition of Mcl-1 by FPA assay. The class given is binding. (In fluorescence polarisation assays a small probe gives low polarisation when free and higher when bound to something large.)
Chain of Mcl-1 (Q07820 172-327): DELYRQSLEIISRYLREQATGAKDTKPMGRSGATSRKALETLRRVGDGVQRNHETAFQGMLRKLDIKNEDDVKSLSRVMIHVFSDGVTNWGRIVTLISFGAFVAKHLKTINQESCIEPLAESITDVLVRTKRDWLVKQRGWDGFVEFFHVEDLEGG

[3] abbreviates: Homo sapiens, NCI-H929, 72 h, read-out: GI50 on cellular proliferation of H929 human cancer cell lines, H929 cells, 72 h, Cell TiterGlo, 10% FBS.

Where two headings read alike, the source gives them in different places.

A word on the Ki: it is the equilibrium dissociation constant of an inhibitor or competing ligand from its target. `Cc1cc(OCCCc2c3n(c4c(-c5c(C)nn(C)c5C)c(Cl)ccc24)[C@H](C)CN(c2cn(C)c4ccc(-c5ncn(C)n5)cc24)C3=O)cc(C)c1Cl` [Example 403, (R)-7-Chloro-10-(3-(4-chloro-3,5-dimethylphenoxy)propyl)-4-methyl-2-(1-methyl-5-(1-methyl-1H-1,2,4-triazol-3-yl)-1H-indol-3-yl)-6-(1,3,5-trimethyl-1H-pyrazol-4-yl)-3,4-dihydropyrazino[1,2-a]indol-1(2H)-one]: the GI50 in test [1] (setting [3]) was less than 200 nM. For the same compound, the Ki in test [2] stood at 1.5 nM.

Regarding `Cc1cccc(OCCCc2c3n(c4c(-c5c(C)nn(C)c5C)c(Cl)ccc24)[C@H](C)CN(c2cn(C)c4ccc(C(=O)O)cc24)C3=O)c1` [Example 405, (R)-3-(7-Chloro-4-methyl-1-oxo-10-(3-(m-tolyloxy)propyl)-6-(1,3,5-trimethyl-1H-pyrazol-4-yl)-3,4-dihydropyrazino[1,2-a]indol-2(1H)-yl)-1-methyl-1H-indole-5-carboxylic acid], the GI50 in test [1] (setting [3]) amounted to 460 nM. Further, in test [2], the Ki is less than 1 nM.

`Cc1cc(OCCCc2c3n(c4c(-c5c(C)nn(C)c5C)c(Cl)ccc24)[C@H](C)CN(c2cn(C)c4ccc(C(=O)O)cc24)C3=O)ccc1Cl` [Example 407, (R)-3-(7-Chloro-10-(3-(4-chloro-3-methylphenoxy)propyl)-4-methyl-1-oxo-6-(1,3,5-trimethyl-1H-pyrazol-4-yl)-3,4-dihydropyrazino[1,2-a]indol-2(1H)-yl)-1-methyl-1H-indole-5-carboxylic acid]: the GI50 in test [1] (setting [3]) came out at 490 nM. For the same compound, in test [2], the Ki is 1.1 nM.

`Cc1nn(C)c(C)c1-c1c(Cl)ccc2c(CCCOc3ccccc3)c3n(c12)[C@H](C)CN(c1cn(C)c2ccc(C(=O)O)cc12)C3=O` [Example 408, (R)-3-(7-Chloro-4-methyl-1-oxo-10-(3-phenoxypropyl)-6-(1,3,5-trimethyl-1H-pyrazol-4-yl)-3,4-dihydropyrazino[1,2-a]indol-2(1H)-yl)-1-methyl-1H-indole-5-carboxylic acid]: the GI50 in test [1] (setting [3]) stood at 3200 nM. The Ki in test [2] was found to be 2.2 nM.

For the compound `Cc1nn(C)c(C)c1-c1c(Cl)ccc2c(CCCOc3ccc(Cl)cc3)c3n(c12)[C@H](C)CN(c1cn(C)c2ccc(C(=O)O)cc12)C3=O` [Example 409, (R)-3-(7-Chloro-10-(3-(4-chlorophenoxy)propyl)-4-methyl-1-oxo-6-(1,3,5-trimethyl-1H-pyrazol-4-yl)-3,4-dihydropyrazino[1,2-a]indol-2(1H)-yl)-1-methyl-1H-indole-5-carboxylic acid], in test [1] (setting [3]), the GI50 worked out at 2800 nM. Moreover, in test [2], the Ki stood at 1.3 nM.

On to `Cc1nn(C)c(C)c1-c1c(Cl)ccc2c(CCCOc3ccc(F)cc3)c3n(c12)[C@H](C)CN(c1cn(C)c2ccc(C(=O)O)cc12)C3=O` [Example 410, (R)-3-(7-Chloro-10-(3-(4-fluorophenoxy)propyl)-4-methyl-1-oxo-6-(1,3,5-trimethyl-1H-pyrazol-4-yl)-3,4-dihydropyrazino[1,2-a]indol-2(1H)-yl)-1-methyl-1H-indole-5-carboxylic acid], for which the GI50 in test [1] (setting [3]) came out at 4000 nM. Further, in test [2], the Ki came to 1.4 nM.

As for `COc1ccc(N2C[C@@H](C)n3c(c(CCCOc4cc(C)c(Cl)c(C)c4)c4ccc(Cl)c(-c5c(C)nn(C)c5C)c43)C2=O)c2c1cc(C(N)=O)n2C` [Example 412, (R)-7-(7-Chloro-10-(3-(4-chloro-3,5-dimethylphenoxy)propyl)-4-methyl-1-oxo-6-(1,3,5-trimethyl-1H-pyrazol-4-yl)-3,4-dihydropyrazino[1,2-a]indol-2(1H)-yl)-4-methoxy-1-methyl-1H-indole-2-carboxamide], the GI50 in test [1] (setting [3]) came to 450 nM. Further, the Ki in test [2] came to 1.3 nM.

Take `Cc1cc(OCCCc2c3n(c4c(-c5c(C)nn(C)c5C)c(Cl)ccc24)[C@H](C)CN(c2ccnc4ccc(-c5nn[nH]n5)cc24)C3=O)cc(C)c1Cl` [Example 414, (R)-2-(6-(2H-Tetrazol-5-yl)quinolin-4-yl)-7-chloro-10-(3-(4-chloro-3,5-dimethylphenoxy)propyl)-4-methyl-6-(1,3,5-trimethyl-1H-pyrazol-4-yl)-3,4-dihydropyrazino[1,2-a]indol-1(2H)-one]: the GI50 in test [1] (setting [3]) is 1400 nM. The Ki in test [2] was less than 1 nM.

In the case of `Cc1cc(N2C[C@@H](C)n3c(c(CCCOc4cc(C)c(Cl)c(C)c4)c4ccc(Cl)c(-c5c(C)nn(C)c5C)c43)C2=O)c2c(c1)cc(C(N)=O)n2Cc1ccccn1` [Example 415, (R)-7-(7-Chloro-10-(3-(4-chloro-3,5-dimethylphenoxy)propyl)-4-methyl-1-oxo-6-(1,3,5-trimethyl-1H-pyrazol-4-yl)-3,4-dihydropyrazino[1,2-a]indol-2(1H)-yl)-5-methyl-1-(pyridin-2-ylmethyl)-1H-indole-2-carboxamide], in test [1] (setting [3]), the GI50 came out at 510 nM. The Ki in test [2] was 3.4 nM.

In the case of `Cc1cc(N2C[C@@H](C)n3c(c(CCCOc4cc(C)c(Cl)c(C)c4)c4ccc(Cl)c(-c5c(C)nc(CN6CCOCC6)nc5C)c43)C2=O)c2c(c1)cc(C(=O)O)n2C` [Example 416, (R)-7-(7-Chloro-10-(3-(4-chloro-3,5-dimethylphenoxy)propyl)-6-(4,6-dimethyl-2-(morpholinomethyl)pyrimidin-5-yl)-4-methyl-1-oxo-3,4-dihydropyrazino[1,2-a]indol-2(1H)-yl)-1,5-dimethyl-1H-indole-2-carboxylic acid], in test [1] (setting [3]), the GI50 was less than 200 nM. For the same compound, in test [2], the Ki is less than 1 nM.

Take `Cc1cc(OCCCc2c3n(c4c(-c5c(C)nn(C)c5C)c(Cl)ccc24)[C@H](C)CN(c2cccc4c(C(=O)O)c(C)n(C)c24)C3=O)cc(C)c1Cl` [Example 417, (R)-7-(7-Chloro-10-(3-(4-chloro-3,5-dimethylphenoxy)propyl)-4-methyl-1-oxo-6-(1,3,5-trimethyl-1H-pyrazol-4-yl)-3,4-dihydropyrazino[1,2-a]indol-2(1H)-yl)-1,2-dimethyl-1H-indole-3-carboxylic acid]: the GI50 in test [1] (setting [3]) was determined as 340 nM. The Ki in test [2] was found to be 1.3 nM.

In the case of `Cc1ccnc(-c2ccc3c(c2)c(N2C[C@@H](C)n4c(c(CCCOc5cc(C)c(Cl)c(C)c5)c5ccc(Cl)c(-c6c(C)nn(C)c6C)c54)C2=O)cn3C)n1` [Example 418, (R)-7-Chloro-10-(3-(4-chloro-3,5-dimethylphenoxy)propyl)-4-methyl-2-(1-methyl-5-(4-methylpyrimidin-2-yl)-1H-indol-3-yl)-6-(1,3,5-trimethyl-1H-pyrazol-4-yl)-3,4-dihydropyrazino[1,2-a]indol-1(2H)-one], the GI50 in test [1] (setting [3]) was determined as 900 nM. The Ki in test [2] worked out at 1.4 nM.

Turning to `Cc1cc(OCCCc2c3n(c4c(-c5c(C)nn(C)c5C)c(Cl)ccc24)[C@H](C)CN(c2cn(C)c4ccc(-c5cn6c(n5)CCC6)cc24)C3=O)cc(C)c1Cl` [Example 419, (R)-7-Chloro-10-(3-(4-chloro-3,5-dimethylphenoxy)propyl)-2-(5-(6,7-dihydro-5H-pyrrolo[1,2-a]imidazol-2-yl)-1-methyl-1H-indol-3-yl)-4-methyl-6-(1,3,5-trimethyl-1H-pyrazol-4-yl)-3,4-dihydropyrazino[1,2-a]indol-1(2H)-one], the GI50 in test [1] (H929 cells, 72 h, Cell TiterGlo, 10% FBS, read-out: GI50 on cellular proliferation of H929 human cancer cell lines) came out at 1100 nM. In addition, the Ki in test [2] was 2.3 nM.

With `Cc1cc(OCCCc2c3n(c4c(-c5c(C)nn(C)c5C)c(Cl)ccc24)[C@H](C)CN(c2cn(C)c4ccc(-c5nc[nH]n5)cc24)C3=O)cc(C)c1Cl` [Example 420, (R)-7-Chloro-10-(3-(4-chloro-3,5-dimethylphenoxy)propyl)-4-methyl-2-(1-methyl-5-(1H-1,2,4-triazol-3-yl)-1H-indol-3-yl)-6-(1,3,5-trimethyl-1H-pyrazol-4-yl)-3,4-dihydropyrazino[1,2-a]indol-1(2H)-one], the GI50 in test [1] (setting [3]) was 280 nM. The Ki in test [2] is 2 nM.

`Cc1cc(OCCCc2c3n(c4c(-c5c(C)nn(C)c5C)c(Cl)ccc24)[C@H](C)CN(c2cc(C(C)C)cc4cc(C(N)=O)n(C)c24)C3=O)cc(C)c1Cl` [Example 422, (R)-7-(7-Chloro-10-(3-(4-chloro-3,5-dimethylphenoxy)propyl)-4-methyl-1-oxo-6-(1,3,5-trimethyl-1H-pyrazol-4-yl)-3,4-dihydropyrazino[1,2-a]indol-2(1H)-yl)-5-isopropyl-1-methyl-1H-indole-2-carboxamide]: the GI50 in test [1] (setting [3]) is 830 nM. The Ki in test [2] was less than 1 nM.

Take `Cc1cc(OCCCc2c3n(c4c(-c5c(C)nn(C)c5C)c(Cl)ccc24)[C@H](C)CN(c2cn(C)c4ccc(-c5nnc(C6CC6)o5)cc24)C3=O)cc(C)c1Cl` [Example 423, (R)-7-Chloro-10-(3-(4-chloro-3,5-dimethylphenoxy)propyl)-2-(5-(5-cyclopropyl-1,3,4-oxadiazol-2-yl)-1-methyl-1H-indol-3-yl)-4-methyl-6-(1,3,5-trimethyl-1H-pyrazol-4-yl)-3,4-dihydropyrazino[1,2-a]indol-1(2H)-one]: the GI50 in test [1] (setting [3]) worked out at 1700 nM. The Ki in test [2] amounted to 2.3 nM.

Consider `Cc1cc(OCCCc2c3n(c4c(-c5c(C)nn(C)c5C)c(Cl)ccc24)[C@H](C)CN(c2cn(C)c4ccc(-c5cccnn5)cc24)C3=O)cc(C)c1Cl` [Example 424, (R)-7-Chloro-10-(3-(4-chloro-3,5-dimethylphenoxy)propyl)-4-methyl-2-(1-methyl-5-(pyridazin-3-yl)-1H-indol-3-yl)-6-(1,3,5-trimethyl-1H-pyrazol-4-yl)-3,4-dihydropyrazino[1,2-a]indol-1(2H)-one], for which the GI50 in test [1] (setting [3]) was found to be 1300 nM. Besides, the Ki in test [2] worked out at 2.6 nM.

Regarding `Cc1cc(OCCCc2c3n(c4c(-c5c(C)nn(C)c5C)c(Cl)ccc24)[C@H](C)CN(c2ccnc4ccc(-c5nnn(C)n5)cc24)C3=O)cc(C)c1Cl` [Example 425, (R)-7-Chloro-10-(3-(4-chloro-3,5-dimethylphenoxy)propyl)-4-methyl-2-(6-(2-methyl-2H-tetrazol-5-yl)quinolin-4-yl)-6-(1,3,5-trimethyl-1H-pyrazol-4-yl)-3,4-dihydropyrazino[1,2-a]indol-1(2H)-one], the GI50 in test [1] (setting [3]) amounted to 1400 nM. Besides, the Ki in test [2] came to 1.8 nM.
